Measurements from PMC9860641, “Synthesis, In Vitro α-Glucosidase Inhibitory Activity and Molecular Docking Study of New Benzotriazole-Based Bis-Schiff Base Derivatives” (Pharmaceuticals, 2022).

Tests used:
α-glucosidase enzyme = α-glucosidase enzyme (Saccharomyces cerevisiae, UniProt P53341); assay type: biochemical
Method: To find out the α-glucosidase inhibition, kinetic studies were carried out using different concentrations of the inhibitors (0.0624, 0.3, 0.125, 0.4 mM) and different concentrations of substrate inhibitor (p-nitrophenol R-D maltoside NMP). Samples of 0.1, 0.2, 0.4, 0.8, and 1.0 mM (0.2 mg/mL) concentration were prepared in de-ionized water with the enzyme. PIPES buffer was used to adjust the pH of the solution. This solution was incubated for 30 min at 25 °C and the absorbance was recorded on an ELISA reader in 96-well plates. Kinetic parameters like Vmax, AICs, Km, and R2 were calculated using sigma plot enzyme kinetic software.

α-glucosidase enzyme, sequence (P53341 whole entry): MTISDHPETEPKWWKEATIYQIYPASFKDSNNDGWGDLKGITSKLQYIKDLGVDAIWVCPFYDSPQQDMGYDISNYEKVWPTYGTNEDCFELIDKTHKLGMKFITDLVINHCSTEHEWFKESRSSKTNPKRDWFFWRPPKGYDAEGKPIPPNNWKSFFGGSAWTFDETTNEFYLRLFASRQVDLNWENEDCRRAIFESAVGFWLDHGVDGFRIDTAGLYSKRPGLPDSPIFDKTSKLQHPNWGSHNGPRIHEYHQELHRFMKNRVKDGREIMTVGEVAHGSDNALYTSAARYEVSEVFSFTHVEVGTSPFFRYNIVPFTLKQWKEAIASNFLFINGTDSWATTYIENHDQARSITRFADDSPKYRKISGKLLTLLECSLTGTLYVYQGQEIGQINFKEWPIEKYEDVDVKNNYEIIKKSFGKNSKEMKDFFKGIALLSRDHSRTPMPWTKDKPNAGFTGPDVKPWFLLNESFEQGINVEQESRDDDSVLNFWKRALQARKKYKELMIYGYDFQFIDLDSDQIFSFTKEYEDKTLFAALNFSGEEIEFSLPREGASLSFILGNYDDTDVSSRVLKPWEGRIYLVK

| Structure (SMILES) | melting point [°C] | also measured |
| --- | --- | --- |
| Oc1c(Cl)cc(Cl)cc1/C=N/N=C(/Cn1nnc2ccccc21)c1ccc(Br)cc1 [Compound 5, 2-((E)-(((E)-2-(1H-benzo[d][1,2, 3]triazol-1-yl)-1-(4-bromophenyl)ethylidene) hydrazono)methyl)-4,6-dichlorophenol] | 196 to 197 | fold lowering of enzymatic activity relative to scaffold (10) (α-glucosidase enzyme; comparator scaffold 10): four-fold |
| O=Cc1ccc(/C=N/N=C(/Cn2nnc3ccccc32)c2ccc(Br)cc2)cc1 [Compound 8, 4-((E)-(((E)-2-(1H-benzo[d][1,2, 3]triazol-1-yl)-1-(4-bromophenyl)ethylidene) hydrazono)methyl)benzaldehyde] | 193 to 194 | potency against α-glucosidase compared with standard acarbose (in words) (α-glucosidase enzyme): less potent than standard acarbose |
| Brc1ccc(/C(Cn2nnc3ccccc32)=N\N=C\c2c3ccccc3cc3ccccc23)cc1 [Compound 4, 1-((E)-2-(((E)-anthracen-9-ylmethylene)hydrazono)-2-(4-bromophenyl)ethyl)-1H-benzo[d] [1,2, 3]triazole] | 201 to 202 | potency against α-glucosidase compared with standard acarbose (in words) (α-glucosidase enzyme): less potent than standard acarbose |
| O=[N+]([O-])c1cccc(/C=N/N=C(/Cn2nnc3ccccc32)c2ccc(Br)cc2)c1 [Compound 3, 1-((E)-2-(4-bromophenyl)-2-(((E)-3-nitrobenzylidene)hydrazono)ethyl)-1H-benzo[d] [1,2, 3]triazole] | 196 to 197 | – |
| O=[N+]([O-])c1ccc(/C=N/N=C(/Cn2nnc3ccccc32)c2ccc(Br)cc2)cc1 [Compound 6, 1-((E)-2-(4-bromophenyl)-2-(((E)-4-nitrobenzylidene)hydrazono)ethyl)-1H-benzo[d] [1,2, 3]triazole] | 196 to 197 | potency relative to compound (3) (α-glucosidase enzyme; comparator compound 3): half |
| Oc1c(Cl)cc(Cl)cc1/C=N/N=C(/Cn1nnc2ccccc21)c1ccc(Cl)cc1Cl [Compound 13, 2-((E)-(((E)-2-(1H-benzo[d][1,2, 3]triazol-1-yl)-1-(2,4-dichlorophenyl)ethylidene) hydrazono)methyl)-4,6-dichlorophenol] | 199 to 200 | fold enhancement of α-glucosidase activity relative to compound (1) (α-glucosidase enzyme; comparator compound 1): three-fold |
| COc1cccc(/C(Cn2nnc3ccccc32)=N\N=C\c2cccc([N+](=O)[O-])c2)c1 [Compound 2, 1-((E)-2-(3-methoxyphenyl)-2-(((E)-3-nitrobenzylidene)hydrazono)ethyl)-1H-benzo[d] [1,2, 3]triazole] | 192 to 193 | fold lower potency than compound (12) (α-glucosidase enzyme; comparator compound 12): two-fold |
| O=[N+]([O-])c1cccc(/C=N/N=C(/Cn2nnc3ccccc32)c2ccc(Cl)cc2Cl)c1 [Compound 14, 1-((E)-2-(2,4-dichlorophenyl)-2-(((E)-3-nitrobenzylidene)hydrazono)ethyl)-1H-benzo[d] [1,2, 3]triazole] | 194 to 195 | – |
| O=[N+]([O-])c1ccc(/C(Cn2nnc3ccccc32)=N\N=C\c2ccc(O)cc2)cc1 [Compound 20, 4-((E)-(((E)-2-(1H-benzo[d][1,2, 3]triazol-1-yl)-1-(4-nitrophenyl)ethylidene) hydrazono)methyl)phenol] | 190 to 191 | – |
| O=[N+]([O-])c1ccc(/C(Cn2nnc3ccccc32)=N\N=C\c2cccc([N+](=O)[O-])c2)cc1 [Compound 11, 1-((E)-2-(((E)-3-nitrobenzylidene)hydrazono)-2-(4-nitrophenyl)ethyl)-1H-benzo[d] [1,2, 3]triazole] | 191 to 192 | – |
| O=[N+]([O-])c1ccc(/C(Cn2nnc3ccccc32)=N\N=C\c2ccc(Cl)c(Cl)c2)cc1 [Compound 19, 1-((E)-2-(((E)-3,4-dichlorobenzylidene)hydrazono)-2-(4-nitrophenyl)ethyl)-1H-benzo[d] [1,2, 3]triazole] | 194 to 195 | – |
| Brc1ccc(/C(Cn2nnc3ccccc32)=N\N=C\c2ccc3ccccc3c2)cc1 [Compound 7, 1-((E)-2-(4-bromophenyl)-2-(((E)-naphthalen-2-ylmethylene)hydrazono)ethyl)-1H-benzo[d] [1,2, 3]triazole] | 196 to 197 | potency against α-glucosidase compared with standard acarbose (in words) (α-glucosidase enzyme): less potent than standard acarbose |
| O=[N+]([O-])c1ccc(/C(Cn2nnc3ccccc32)=N\N=C\c2cc(Cl)cc(Cl)c2O)cc1 [Compound 10, 2-((E)-(((E)-2-(1H-benzo[d][1,2, 3]triazol-1-yl)-1-(4-nitrophenyl)ethylidene) hydrazono)methyl)-4,6-dichlorophenol] | 197 to 198 | – |
| Clc1ccc(/C=N/N=C(/Cn2nnc3ccccc32)c2ccc(Br)cc2)cc1Cl [Compound 17, 1-((E)-2-(4-bromophenyl)-2-(((E)-3,4-dichlorobenzylidene)hydrazono)ethyl)-1H-benzo[d] [1,2, 3]triazole] | 198 to 199 | potency against α-glucosidase compared with standard acarbose (in words) (α-glucosidase enzyme): less potent than standard acarbose |
| O=[N+]([O-])c1cccc(/C(Cn2nnc3ccccc32)=N\N=C\c2cc(Cl)cc(Cl)c2O)c1 [Compound 9, 2-((E)-(((E)-2-(1H-benzo[d][1,2, 3]triazol-1-yl)-1-(3-nitrophenyl)ethylidene) hydrazono)methyl)-4,6-dichlorophenol] | 197 to 198 | potency relative to standard acarbose (fold greater) (α-glucosidase enzyme; compared to standard acarbose): nine-fold |
| O=[N+]([O-])c1ccc(/C=N/N=C(/Cn2nnc3ccccc32)c2ccc(Cl)cc2Cl)cc1 [Compound 15, 1-((E)-2-(2,4-dichlorophenyl)-2-(((E)-4-nitrobenzylidene)hydrazono)ethyl)-1H-benzo[d] [1,2, 3]triazole] | 194 to 195 | – |
| O=[N+]([O-])c1ccc(/C=N/N=C(/Cn2nnc3ccccc32)c2ccc([N+](=O)[O-])cc2)cc1 [Compound 12, 1-((E)-2-(((E)-4-nitrobenzylidene)hydrazono)-2-(4-nitrophenyl)ethyl)-1H-benzo[d] [1,2, 3]triazole] | 191 to 192 | inhibition profile relative to scaffold (11) (α-glucosidase enzyme; comparator scaffold 11): half |
| COc1cccc(/C(Cn2nnc3ccccc32)=N\N=C\c2cc(Cl)cc(Cl)c2O)c1 [Compound 1, 2-((E)-(((E)-2-(1H-benzo[d][1,2, 3]triazol-1-yl)-1-(3-methoxyphenyl)ethylidene) hydrazono)methyl)-4,6-dichlorophenol] | 195 to 196 | fold lower potency than compound (9) (α-glucosidase enzyme; comparator compound 9): four-fold |
